PubChem BioAssay (NCI)
Several values for one entry are separate records, joined by “and”; a condition that tells them apart may be missing. Identical values can stand only once.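 The compound was tested at five concentrations on cells cultured in 96-well plates, with a 48-hour exposure period. At the GI50, growth is halved. The concentration for full growth arrest is given as TGI.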

Key:
Assay in all cases: DTP human tumour cell line panel, 48 h
KM12 colon = tested on: KM12 colon
COLO 205 colon = tested on: COLO 205 colon
HOP-92 NSCLC = tested on: HOP-92 NSCLC
SR leukemia = tested on: SR leukemia
OVCAR-8 ovarian = tested on: OVCAR-8 ovarian
CCRF-CEM leukemia = tested on: CCRF-CEM leukemia
RXF 393 renal = tested on: RXF 393 renal
LOX IMVI melanoma = tested on: LOX IMVI melanoma
UACC-62 melanoma = tested on: UACC-62 melanoma
M14 melanoma = tested on: M14 melanoma

| SMILES | GI50 (KM12 colon) | TGI (KM12 colon) | GI50 (COLO 205 colon) | TGI (COLO 205 colon) | GI50 (HOP-92 NSCLC) | TGI (HOP-92 NSCLC) | GI50 (SR leukemia) | TGI (SR leukemia) | GI50 (OVCAR-8 ovarian) | TGI (OVCAR-8 ovarian) | GI50 (CCRF-CEM leukemia) | TGI (CCRF-CEM leukemia) | GI50 (RXF 393 renal) | TGI (RXF 393 renal) | GI50 (LOX IMVI melanoma) | TGI (LOX IMVI melanoma) | GI50 (UACC-62 melanoma) | TGI (UACC-62 melanoma) | GI50 (M14 melanoma) | TGI (M14 melanoma) |
| --- | --- | --- | --- | --- | --- | --- | --- | --- | --- | --- | --- | --- | --- | --- | --- | --- | --- | --- | --- | --- |
| O=C(O)c1cn(C2CC2)c2cc(N3CCN(C(=O)Nc4nc(-c5ccccc5)cs4)CC3)c(F)cc2c1=O | 0.485 µM | 23.7 µM | 2.84 µM | 9.63 µM | 1130 nM | 5.99 µM | 350 nM | 73.8 µM | 1.45 µM | 49.2 µM | 0.752 µM | > 100 µM | 1.53 µM | 26.3 µM | 0.281 µM | 1.03 µM | 0.67 µM | 8.52 µM | 2.06 µM | > 100 µM |
| O=C(O)C1CCCCC1c1c2ccc(=O)c(O)c-2oc2c(O)c(O)ccc12 (stereo unspecified) |  | > 100 µM |  | > 100 µM |  | > 100 µM |  | > 100 µM |  | 88.7 µM |  | 3.11 µM |  | > 100 µM |  | 32.6 µM |  | > 100 µM |  | > 100 µM |
| COc1ccc2c(c1)CC[C@@H]1[C@@H]2CC[C@]2(C)[C@@H](NC(=O)/C=C/c3ccc(O)c(O)c3)CC[C@@H]12 | 2.28 µM | 5.88 µM | 14 µM | 46.8 µM | 2490 nM | 11.6 µM | 1510 nM | 4.21 µM | 4.2 µM | 16.7 µM | 0.731 µM | 6.67 µM | 7.94 µM | 46 µM | 3.15 µM | 13.7 µM | 2.12 µM | 6.19 µM | 2.26 µM | 6.98 µM |
| CC(=O)NC1C(OCc2ccccc2)OC(CO)C(O)C1OC(C)C(=O)N[C@@H](C)C(=O)N[C@H](CCC(=O)OCCNc1c2ccccc2nc2cccc([N+](=O)[O-])c12)C(N)=O (stereo partly specified) |  | 0.00538 µM |  | 0.0026 µM |  | 0.00616 µM |  | > 0.1 µM |  | 0.028 µM |  | > 0.1 µM and 0.0189 µM |  | 0.00304 µM |  |  |  | 0.00203 µM |  | 0.00251 µM |
| Nc1c(O)cc(N=C2C(=O)C=CC=C2C(=O)O)c(O)c1C(=O)O |  | > 100 µM |  | > 100 µM |  | > 100 µM |  | > 100 µM |  | > 100 µM |  |  |  | > 31.6 µM |  | > 100 µM |  | > 100 µM |  | > 59.2 µM |
| CS(=O)(=O)NNS(=O)(=O)c1ccccc1 |  | > 100 µM |  | > 100 µM |  |  |  | > 100 µM |  | > 100 µM |  | > 100 µM |  | > 100 µM |  | > 100 µM |  | > 100 µM |  | > 100 µM |
| O=C(CC1(O)C(=O)Nc2ccc(Br)cc21)c1ccc(Cl)cc1Cl (stereo unspecified) |  | > 100 µM |  | > 100 µM |  |  |  | 50.7 µM |  | > 100 µM |  | 57.1 µM |  | > 100 µM |  |  |  | 33.7 µM |  | > 100 µM |
| S=c1nc(COc2ccc(Cl)cc2Cl)[nH][nH]1 |  |  |  |  |  | > 100 µM |  | > 100 µM |  | > 100 µM |  | > 100 µM |  | > 100 µM |  | > 100 µM |  | > 100 µM |  | > 100 µM |
| CC(=O)c1c(CN(C)c2ccccc2)n([O-])c2ccccc2[n+]1=O | 29.6 µM | > 100 µM | 16.2 µM | 32.9 µM |  |  | 5790 nM | > 100 µM | 43.1 µM | > 100 µM | 23 µM | 96.7 µM | 21.2 µM | 62.7 µM | 38.2 µM | > 100 µM | 23.9 µM | 83.8 µM | 31.4 µM | 80.4 µM |
| COC(=O)C(=CNC(N)=O)C(=O)OC |  | > 100 µM |  | > 100 µM |  | > 100 µM |  | > 100 µM |  | > 100 µM |  | > 100 µM |  |  |  | > 100 µM |  | > 100 µM |  | > 100 µM |
| CN=C(NC(=S)N(C)C)N(C)C |  | > 100 µM |  |  |  | > 100 µM |  | > 100 µM |  | > 100 µM |  | > 100 µM |  | > 100 µM |  |  |  | > 100 µM |  | > 100 µM |
| CCCCCCCCCCCCCCCCNCCCN(C)CCCN |  | 33 µM |  | 46.6 µM |  |  |  | 42.2 µM |  | 38.5 µM |  |  |  |  |  | 42 µM |  | 33.2 µM |  | 30.8 µM |
| COc1cc(OC)c2nccc(NCCCN(C)C)c2c1[N+](=O)[O-] |  | > 100 µM |  | > 100 µM |  | > 100 µM |  | > 100 µM |  | > 100 µM |  | > 100 µM |  |  |  | > 100 µM |  | > 100 µM |  | > 100 µM |
| COc1cccc(/C=N/NC(=S)NC2CC3CCC2C3)c1O (stereo unspecified) | 26.3 µM | > 100 µM | 96.7 µM | > 100 µM |  |  | 3080 nM | 10.8 µM | 5.2 µM | 18.5 µM | 6.65 µM | 38.7 µM | 13 µM | 28.1 µM | 5.09 µM | 18 µM | 10.8 µM | 50.1 µM | 9.92 µM | 31.9 µM |
| COc1cc(-c2cc(-c3ccc(Nc4ccnc5cc(Cl)ccc45)cc3)nc(N3CCOCC3)n2)cc(OC)c1OC |  |  | 2.79 µM | 9.36 µM | 1850 nM | 4.81 µM | 468 nM | 2.41 µM | 2.12 µM | 4.7 µM | 1.54 µM | 6.17 µM | 1.8 µM | 4.44 µM |  |  | 1.98 µM | 3.83 µM |  |  |
| COC(=O)/C(=N/Nc1cccc(Cl)c1)C(C(=O)C(=O)Nc1cccc(Cl)c1C)c1nc2ccccc2nc1C (stereo unspecified) |  | > 100 µM |  | > 100 µM |  |  |  | > 100 µM |  | > 100 µM |  | > 100 µM |  | > 100 µM |  |  |  | > 100 µM |  | > 100 µM |
| N#CC1CCCCOCCOCCOCCOCCOCCCCCC1=O (stereo unspecified) |  | > 100 µM |  | > 100 µM |  |  |  | > 100 µM |  | > 100 µM |  | > 100 µM |  | > 100 µM |  | > 100 µM |  | > 100 µM |  | > 100 µM |
| O=[N+]([O-])c1ccc(-c2noc(-c3ccc(Cl)cc3)c2C2=NCCN2)cc1 |  | > 100 µM |  | > 100 µM |  |  |  | > 100 µM |  | > 100 µM |  | > 100 µM |  | > 100 µM |  | > 100 µM |  | > 100 µM |  | > 100 µM |
| Clc1ccc(-c2csc(Nc3cccc(-c4csc(-c5ccccc5)n4)c3)n2)cc1 | 15.7 µM | > 50 µM | 10 µM | 23.1 µM | 12500 nM | > 50 µM | 6800 nM | 28.7 µM | 14.6 µM | 39 µM |  |  | 9.89 µM | 21.9 µM | 3.53 µM | 9.79 µM | 6.24 µM | 13.6 µM | 11.6 µM | 24.1 µM |
| CCC/C=C1\CCC(CN(C)C)C1=O (stereo unspecified) |  | 15.3 µM |  | 10.7 µM |  | 6.8 µM |  | 8.98 µM |  | 33.7 µM |  | 1.97 µM |  |  |  | 20.8 µM |  | 28.2 µM |  | 16.1 µM |
| Oc1ccc(O)c(-c2cc(-c3ccc(Cl)cc3)nn2-c2ccccc2)c1 | 4.14 µM | 18.4 µM |  |  | 2710 nM | 22.9 µM | 3000 nM | 14.4 µM | 4.51 µM | > 100 µM | 3.06 µM | > 100 µM |  |  |  |  | 2.63 µM | 7.88 µM | 2.89 µM | 6.53 µM |
| Cc1cn(C2C=CC(CO)O2)c(=O)[nH]c1=O (stereo unspecified) |  | > 1000 µM |  | > 1000 µM |  | > 1000 µM |  | > 1000 µM |  | > 1000 µM |  | > 1000 µM |  |  |  | > 1000 µM |  | > 1000 µM |  | > 1000 µM |
| Nc1nc(N)c(C=Nc2ccc(Br)cc2)c(Nc2ccc(Br)cc2)n1 | 4.22 µM | 18.4 µM | 14.5 µM | 34.6 µM |  |  | 2610 nM | 10.2 µM | 15.2 µM | 40.7 µM | 9.3 µM | 26.2 µM | 2.89 µM | 13.6 µM | 3.01 µM | 16.4 µM | 12.1 µM | 24.4 µM | 9.59 µM | 21.4 µM |
| Nc1cc(O)ccc1N=Nc1ccc(-c2nc3ccccc3[nH]2)cc1 | 5.07 µM | > 100 µM | 34.9 µM | > 100 µM | 670 nM | 15.5 µM | 68500 nM | > 100 µM | 10.7 µM | 52.5 µM |  |  |  |  | 7.6 µM | 37.1 µM | 17.1 µM | > 100 µM | > 100 µM | > 100 µM |
| Cc1cc(-c2ccccc2)nc(Nc2nc3ccccc3o2)n1 |  | > 100 µM |  | > 100 µM |  | > 100 µM |  | > 100 µM |  | > 100 µM |  | > 100 µM |  |  |  | > 100 µM |  | > 100 µM |  | > 100 µM |
| Cc1nc2c(o1)C(=Nc1ccccc1)c1ccccc1C2=O |  | 30.9 µM |  | 29.7 µM |  | 25.9 µM |  |  |  | 13.4 µM |  | 45.9 µM |  | 44 µM |  | 12.1 µM |  | 11 µM |  | 21.4 µM |
| COC(=O)C1C=CCON2CCc3c(n(C)c4ccccc34)C12 (stereo unspecified) |  | > 100 µM |  | > 100 µM |  | > 100 µM |  | > 100 µM |  |  |  | > 100 µM |  | > 100 µM |  | > 100 µM |  |  |  | > 100 µM |
| COC(=O)CCC1CCc2c(OC)ccc(OC)c2C1=O (stereo unspecified) |  | > 100 µM |  | > 100 µM |  |  |  | > 100 µM |  | > 100 µM |  | > 100 µM |  | > 100 µM |  | > 100 µM |  | > 100 µM |  | > 100 µM |
